# Read-outs that look alike come from different tables or passages of the source.
# Tests used:
# Type in all cases: biochemical
# [1] = molecular target: T1, α-glucosidase (yeast, type I) (Saccharomyces cerevisiae, UniProt P53341); experiment: α-glucosidase inhibitory activity, p-nitrophenyl-α-D-glucopyranoside as substrate
# T1 construct: purchased Sigma Chemicals, U.S.A
# Description: The inhibitory activity of the compounds of this invention against α-glucosidase (yeast, type I, produced by Sigma Chemicals, U.S.A.), when p-nitrophenyl-α-D-glucopyranoside is used as a substrate, is determined by adding 0.5 ml of a solution of an inhibitor of this invention in 0.02M phosphate buffer (pH 6.8) and 0.25 ml of 0.01M p-nitrophenyl-α-D-glucopyranoside in the same buffer to 0.25 ml of a solution of α-glucosidase in the same buffer (0.005 mg/ml), allowing the reaction to proceed at 37° C. for 15 minutes, then adding 3 ml of 0.1M aqueous sodium carbonate solution to terminate the reaction, and measuring the absorbance of the reaction solution at 400 nm. The 50% inhibition concentration of the inhibitor is calculated from the inhibition rates (%) which are determined with inhibitory substance samples of three to five different concentrations.
# (§1) When 0.05M maltose is used as a substrate, the inhibitory activity against maltase prepared from porcine intestinal mucosa is determined by measuring the amount of released D-glucose by use of glucose oxidase [Glucose B-Test Wako (a reagent for clinical diagnostic use for determining glucose, produced by Wako Pure Chemical Co. Japan)] to calculate the 50% inhibition concentration. The molar concentration required for 50% inhibition (IC50) of the α-glucosidase inhibitors represented by the formula [I], to inhibit activity of α-glucosidase (yeast), is shown in Table 1 and that to inhibit activity of maltase (porcine intestinal mucosa) is in Table 2.
# [2] = molecular target: maltase (porcine intestinal mucosa); experiment: inhibitory activity against maltase, 0.05M maltose as substrate; conditions: Table 2, read-out: IC50 (molar concentration required for 50% inhibition)
# Description: as §1
# [3] = test system: α-glucoside hydrolase; experiment: suppression of α-glucoside hydrolase function (statement in words)
# [4] = molecular target: T2, saccharase (porcine intestinal mucosa) (Sus scrofa, UniProt P56729); experiment: inhibitory activity against saccharase
# T2 construct: saccharase prepared from porcine intestinal mucosa; from tissue; host or cells: porcine intestinal mucosa
# T2 sequence (P56729 with tags, fused parts or gaps limits assumed): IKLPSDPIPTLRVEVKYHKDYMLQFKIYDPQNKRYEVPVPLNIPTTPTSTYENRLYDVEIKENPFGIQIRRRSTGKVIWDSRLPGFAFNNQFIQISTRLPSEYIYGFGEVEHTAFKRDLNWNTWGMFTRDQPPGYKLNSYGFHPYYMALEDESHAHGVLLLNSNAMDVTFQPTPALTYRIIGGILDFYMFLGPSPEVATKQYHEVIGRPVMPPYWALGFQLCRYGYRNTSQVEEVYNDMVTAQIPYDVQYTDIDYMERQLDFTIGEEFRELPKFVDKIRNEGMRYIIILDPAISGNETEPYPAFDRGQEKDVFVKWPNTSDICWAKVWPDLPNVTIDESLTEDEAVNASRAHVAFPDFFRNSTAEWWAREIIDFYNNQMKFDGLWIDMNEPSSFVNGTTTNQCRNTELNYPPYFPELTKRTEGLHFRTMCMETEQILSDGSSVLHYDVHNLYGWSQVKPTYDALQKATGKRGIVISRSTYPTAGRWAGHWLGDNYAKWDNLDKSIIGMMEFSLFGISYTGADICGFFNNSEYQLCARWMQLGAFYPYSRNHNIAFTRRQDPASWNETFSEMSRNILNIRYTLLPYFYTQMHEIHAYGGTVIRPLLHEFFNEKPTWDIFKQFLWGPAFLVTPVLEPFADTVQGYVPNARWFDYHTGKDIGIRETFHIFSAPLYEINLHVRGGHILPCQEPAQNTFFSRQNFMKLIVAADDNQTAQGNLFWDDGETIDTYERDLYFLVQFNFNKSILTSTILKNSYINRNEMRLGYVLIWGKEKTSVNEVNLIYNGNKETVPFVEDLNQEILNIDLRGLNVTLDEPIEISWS
# T2 sequence (P56729 with tags, fused parts or gaps partner limits assumed): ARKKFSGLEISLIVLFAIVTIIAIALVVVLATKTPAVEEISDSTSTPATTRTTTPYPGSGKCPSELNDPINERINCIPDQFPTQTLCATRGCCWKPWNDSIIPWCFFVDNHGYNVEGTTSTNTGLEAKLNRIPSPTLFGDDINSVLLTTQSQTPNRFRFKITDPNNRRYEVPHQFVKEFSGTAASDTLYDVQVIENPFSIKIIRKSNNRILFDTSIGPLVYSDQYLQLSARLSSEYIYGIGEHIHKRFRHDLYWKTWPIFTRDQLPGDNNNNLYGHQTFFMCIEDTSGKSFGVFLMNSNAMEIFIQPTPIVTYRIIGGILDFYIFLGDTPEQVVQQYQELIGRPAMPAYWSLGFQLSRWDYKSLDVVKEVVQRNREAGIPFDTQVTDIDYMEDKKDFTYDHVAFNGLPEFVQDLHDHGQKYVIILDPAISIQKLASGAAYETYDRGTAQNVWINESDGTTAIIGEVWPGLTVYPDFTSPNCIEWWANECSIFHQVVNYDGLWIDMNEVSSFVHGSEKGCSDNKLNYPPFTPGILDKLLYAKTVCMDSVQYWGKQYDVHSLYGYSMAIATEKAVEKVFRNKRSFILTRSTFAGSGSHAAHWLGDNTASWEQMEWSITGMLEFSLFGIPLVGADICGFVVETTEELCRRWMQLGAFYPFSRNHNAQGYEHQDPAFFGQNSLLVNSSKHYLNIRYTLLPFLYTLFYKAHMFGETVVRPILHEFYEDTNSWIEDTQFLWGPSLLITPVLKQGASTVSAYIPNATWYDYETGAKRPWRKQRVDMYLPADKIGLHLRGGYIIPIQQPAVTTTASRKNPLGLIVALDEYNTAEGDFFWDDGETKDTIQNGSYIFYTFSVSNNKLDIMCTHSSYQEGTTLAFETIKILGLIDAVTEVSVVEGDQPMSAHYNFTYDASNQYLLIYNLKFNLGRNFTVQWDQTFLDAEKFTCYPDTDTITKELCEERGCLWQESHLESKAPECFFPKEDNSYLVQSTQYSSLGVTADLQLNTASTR
# Description: The inhibitory activity against saccharase prepared from porcine intestinal mucosa is determined by a similar method to that against maltase in accordance with the method described in Acta. Chem. Scand., 12, 1997-2006 (1958).
# [5] = Table 1, α-glucosidase (yeast), pH 6.8, 37° C., 15 minutes, read-out: IC50 (molar concentration required for 50% inhibition)
# T1 sequence (P53341 whole entry): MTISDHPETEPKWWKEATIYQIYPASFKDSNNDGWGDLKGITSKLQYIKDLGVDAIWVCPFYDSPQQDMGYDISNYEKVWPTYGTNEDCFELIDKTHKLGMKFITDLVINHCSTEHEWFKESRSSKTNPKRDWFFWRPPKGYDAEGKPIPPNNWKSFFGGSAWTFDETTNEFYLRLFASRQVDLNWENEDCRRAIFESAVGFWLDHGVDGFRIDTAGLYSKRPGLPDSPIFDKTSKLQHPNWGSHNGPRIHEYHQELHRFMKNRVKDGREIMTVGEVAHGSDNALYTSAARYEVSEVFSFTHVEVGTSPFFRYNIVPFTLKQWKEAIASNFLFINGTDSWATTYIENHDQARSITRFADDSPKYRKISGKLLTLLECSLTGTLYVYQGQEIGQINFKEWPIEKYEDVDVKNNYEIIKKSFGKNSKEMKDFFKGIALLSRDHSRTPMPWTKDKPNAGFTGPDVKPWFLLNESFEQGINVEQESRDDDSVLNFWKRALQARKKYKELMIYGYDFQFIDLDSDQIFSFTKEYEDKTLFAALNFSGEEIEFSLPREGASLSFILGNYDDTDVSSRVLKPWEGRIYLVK
SMILES,"IC50 [1, 5] [µM]",IC50 [2] [µM],also measured
OCC1=C[C@H](NC[C@H](O)[C@@H](O)[C@@H](O)[C@H](O)CO)[C@H](O)[C@@H](O)[C@@H]1O,160,,
"CCCCN[C@H]1C=C(CO)[C@@H](O)[C@H](O)[C@H]1O [CH2 CH2 CH2 CH3, N-n-butylvalienamine]",21,,
OCC1=C[C@H](NCc2ccco2)[C@H](O)[C@@H](O)[C@@H]1O,150,,
CC(CN[C@H]1C=C(CO)[C@@H](O)[C@H](O)[C@H]1O)c1ccccc1 (some centres unmarked),13,,
OCC1=C[C@H](NCCCc2ccccc2)[C@H](O)[C@@H](O)[C@@H]1O [drawing 18],2.2,,
OCC1=C[C@H](NCCCCCc2ccccc2)[C@H](O)[C@@H](O)[C@@H]1O,0.75,,
OCC1=C[C@H](NC(CO)CO)[C@H](O)[C@@H](O)[C@@H]1O [drawing 49],,14,
OCC1=C[C@H](NCc2ccccc2)[C@H](O)[C@@H](O)[C@@H]1O,9.2,,
OCC1=C[C@H](NC[C@@H](O)[C@@H](O)[C@H](O)[C@H](O)CO)[C@H](O)[C@@H](O)[C@@H]1O,100,,
CC(C)=CCC/C(C)=C/CN[C@H]1C=C(CO)[C@@H](O)[C@H](O)[C@H]1O [drawing 48],,5.2,
"CC(Cc1ccccc1)N[C@H]1C=C(CO)[C@@H](O)[C@H](O)[C@H]1O (stereo partly drawn) [Example 21, N-(α-methylphenethyl)valienamine]",,,IC50 [1]: 0.13 µM
OCC1=C[C@H](NCCCCc2ccccc2)[C@H](O)[C@@H](O)[C@@H]1O [drawing 40],,80,
OCC1=C[C@H](NCc2ccc(Br)cc2)[C@H](O)[C@@H](O)[C@@H]1O,,75,
OCC1=C[C@H](NC[C@@H](O)[C@H](O)[C@H](O)CO)[C@H](O)[C@@H](O)[C@@H]1O,120,,
OCC1=C[C@H](NCc2cccs2)[C@H](O)[C@@H](O)[C@@H]1O,38,,
OCC1=C[C@H](NC(CO)c2ccccc2)[C@H](O)[C@@H](O)[C@@H]1O (some centres unmarked),,14,
OCC1=C[C@H](NC[C@H](O)[C@@H](O)[C@H](O)[C@H](O)CO)[C@H](O)[C@@H](O)[C@@H]1O,110,,
OCC1=C[C@H](NCCCOc2ccccc2)[C@H](O)[C@@H](O)[C@@H]1O,1.1,,
OCC1=C[C@H](NC(CO)[C@@H](O)[C@H](O)[C@@H](O)CO)[C@H](O)[C@@H](O)[C@@H]1O (some centres unmarked) [drawing 37],130,,
COc1ccccc1C(O)CN[C@H]1C=C(CO)[C@@H](O)[C@H](O)[C@H]1O (some centres unmarked) [drawing 24],0.38,,
CC(C)=CCC/C(C)=C/CN[C@H]1C=C(CO)[C@@H](O)[C@H](O)[C@H]1O [drawing 27],1.7,,
N[C@H]1C=C(CO)[C@@H](O)[C@H](O)[C@H]1O [valienamine],,,action of suppressing the function of α-glucoside hydrolase [3]: possesses a highly valuable action of suppressing the function of α-glucoside hydrolase
OCC1=C[C@H](NC(CO)[C@@H](O)[C@H](O)[C@H](O)CO)[C@H](O)[C@@H](O)[C@@H]1O (some centres unmarked),110,,
OCC1=C[C@H](NCCCCc2ccccc2)[C@H](O)[C@@H](O)[C@@H]1O [drawing 20],0.98,,
O=C(O)c1ccc(CN[C@H]2C=C(CO)[C@@H](O)[C@H](O)[C@H]2O)cc1,150,,

SMILES,"IC50 [1, 5] [µM]",IC50 [2] [µM],also measured
OCC1=C[C@H](NCCCc2ccccc2)[C@H](O)[C@@H](O)[C@@H]1O [drawing 39],,20,
OCC1=C[C@H](NCCc2ccccc2)[C@H](O)[C@@H](O)[C@@H]1O [drawing 38],,11,
COc1ccc(CN[C@H]2C=C(CO)[C@@H](O)[C@H](O)[C@H]2O)cc1,18,,
OCC1=C[C@H](NCC2CCCCC2)[C@H](O)[C@@H](O)[C@@H]1O,0.38,,
OCC1=C[C@H](NCC=Cc2ccccc2)[C@H](O)[C@@H](O)[C@@H]1O,20,,
Cc1ccc(CN[C@H]2C=C(CO)[C@@H](O)[C@H](O)[C@H]2O)cc1,20,,
OCC1=C[C@H](NCC(O)c2ccccc2)[C@H](O)[C@@H](O)[C@@H]1O (some centres unmarked) [drawing 16],1.1,,
OCC1=C[C@H](NC[C@H](O)[C@@H](O)[C@H](O)CO)[C@H](O)[C@@H](O)[C@@H]1O,110,,
OCC1=C[C@H](NCCc2ccccc2)[C@H](O)[C@@H](O)[C@@H]1O [drawing 15],1.8,,
OCC1=C[C@H](NC[C@H](O)[C@H](O)[C@H](O)CO)[C@H](O)[C@@H](O)[C@@H]1O,90,,
OCC1=C[C@H](NCc2ccc(O)c(O)c2)[C@H](O)[C@@H](O)[C@@H]1O,,8.1,
"OCC1=C[C@H](NC2CCCCC2O)[C@H](O)[C@@H](O)[C@@H]1O (some centres unmarked) [Example 36, N-(2-hydroxycyclohexyl)valienamine]",,,IC50 [4]: 0.17 µM
COc1ccccc1C(O)CN[C@H]1C=C(CO)[C@@H](O)[C@H](O)[C@H]1O (some centres unmarked) [drawing 47],,3.1,
CC(Cc1ccccc1)N[C@H]1C=C(CO)[C@@H](O)[C@H](O)[C@H]1O (some centres unmarked) [drawing 46],,2.4,
OCC1=C[C@H](NC(CO)[C@@H](O)[C@H](O)[C@@H](O)CO)[C@H](O)[C@@H](O)[C@@H]1O (some centres unmarked) [drawing 50],,14,
OCC1=C[C@H](NC(CO)CO)[C@H](O)[C@@H](O)[C@@H]1O [drawing 29],66,,
OCC1=C[C@H](NCC(c2ccccc2)c2ccccc2)[C@H](O)[C@@H](O)[C@@H]1O,0.038,,
CC(N[C@H]1C=C(CO)[C@@H](O)[C@H](O)[C@H]1O)c1ccccc1 (some centres unmarked),13,,
OCC1=C[C@H](NCC(O)c2ccccc2)[C@H](O)[C@@H](O)[C@@H]1O (some centres unmarked) [drawing 41],,3.2,
OCC1=C[C@H](NCc2ccc(O)cc2)[C@H](O)[C@@H](O)[C@@H]1O [drawing 43],,19,
OCC1=C[C@H](NC(CO)C(O)c2ccccc2)[C@H](O)[C@@H](O)[C@@H]1O (some centres unmarked),,9.6,
CC(C)(C)c1cc(CN[C@H]2C=C(CO)[C@@H](O)[C@H](O)[C@H]2O)cc(C(C)(C)C)c1O,12,,
OCC1=C[C@H](NCc2cccnc2)[C@H](O)[C@@H](O)[C@@H]1O,56,,
OCC1=C[C@H](NCc2ccc(O)cc2)[C@H](O)[C@@H](O)[C@@H]1O [drawing 23],5,,
OCC1=C[C@H](NCC(O)COc2ccccc2)[C@H](O)[C@@H](O)[C@@H]1O (some centres unmarked),,24,

# Source: US4486602A, “Valienamine derivatives, their production and use” (Takeda Chemical Industries, Ltd., priority 1980, dated 1984)
